Measurements published in patent publication EP4653437A2 (Innovo Therapeutics Inc., priority 2023, dated 2024).

How the values were obtained:
human 15-PGDH = molecular target: T1, human 15-PGDH (Homo sapiens, UniProt P15428); experiment: Evaluation of 15-PGDH inhibitory activity (fluorescence enzyme assay, NAD+/PGE2); type: biochemical; conditions: human 15-PGDH enzyme, fluorescence Vmax
T1 construct: purchased R&D System 5660-DH
T1 sequence (P15428 1-266): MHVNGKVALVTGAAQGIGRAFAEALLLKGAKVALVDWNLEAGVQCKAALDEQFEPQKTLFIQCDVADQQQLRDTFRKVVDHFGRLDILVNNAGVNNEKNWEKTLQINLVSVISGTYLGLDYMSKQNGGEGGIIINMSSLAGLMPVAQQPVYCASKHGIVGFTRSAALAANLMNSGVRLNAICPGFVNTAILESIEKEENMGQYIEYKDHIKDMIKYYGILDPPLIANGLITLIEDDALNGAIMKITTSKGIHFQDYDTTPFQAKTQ
Protocol: 15-PGDH inhibition activity of Example compounds was measured as follows. 6.7 ng of human 15-PGDH (R&D System# 5660-DH) enzyme (10 µL) was added to a black 96 well plate, 60 µL of buffer (50 mM Tris-HCl, pH 7.5, 0.01% Tween 20) was added, and 10 µL of 200 µM β-Nicotinamide adenine dinucleotide sodium salt (Sigma, Cat# N0632-5G) was added. 10 µL of (10x) compound solution in DMSO was added and reacted for 10 minutes at room temperature.

A549 cells = experiment: Measurement of PGE2-increasing activity in A549 cells (IL-1β stimulated, PGE2 quantified in supernatant); type: cell-based; conditions: Homo sapiens, 24 h; concentration of 1 µM of each compound; IL-1β treated A549 cells; read-out: Increased PGE2 production in A549 cells
Procedure, shortened: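 PGE2 secreted into the supernatant was measured by immunoassay 24 h after treatment. Before treatment, A549 cells were cultured 24 h in 10% FBS F12K, washed, and placed in serum-free medium containing compound (DMSO 0.1% final) plus or minus IL-1β, incubated at 37 °C, 5% CO2.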

Row | Compound | IC50 (human 15-PGDH) | fold induction at 1 µM (A549 cells)
1 | O=C(c1ccc(-c2cccc3c(C(=O)N4CCCCC4)cnn23)cn1)N1CC(F)C1 [Example 213, (3-fluoroazetidin-1-yl)-[5-[3-(piperidine-1-carbonyl)pyrazolo[1,5-a]pyridin-7-yl]-2-pyridyl]methanone] | ≤ 100 nM | > 1.5
2 | O=C(c1cnn2c(-c3ccc(-c4ncon4)cc3)cccc12)N1CCCCC1 [Example 352, [7-[4-(1,2,4-oxadiazol-3-yl)phenyl]pyrazolo[1,5-a]pyridin-3-yl]-(1-piperidyl)methanone] | ≤ 100 nM | > 1.5
3 | O=C(c1cnn2c(NCc3ncccn3)cccc12)N1CCCCC1 [Example 148, piperidin-1-yl(7-((pyrimidin-2-ylmethyl)amino)pyrazolo[1,5-a]pyridin-3-yl)methanone] | ≤ 100 nM | > 1.5
4 | CNC(=O)c1ccc(-c2cccc3c(C(=O)N4CCCCC4)cnn23)cc1 [Example 58, N-methyl-4-(3-(piperidine-1-carbonyl)pyrazolo[1,5-a]pyridin-7-yl)benzamide] | ≤ 100 nM | > 1.5
5 | O=C1CC(C(=O)Nc2cncc(-c3cccc4c(C(=O)N5CCCCC5)cnn34)c2)CCN1 (stereo not shown) [Example 198, 2-oxo-N-(5-(3-(piperidine-1-carbonyl)pyrazolo[1,5-a]pyridin-7-yl)pyridin-3-yl)piperidine-4-carboxamide] | ≤ 100 nM | > 1.5
6 | O=C(c1cnn2c(-c3cncc([N+](=O)[O-])c3)cccc12)N1CCCCC1 [Example 318, (7-(5-nitropyridin-3-yl)pyrazolo[1,5-a]pyridin-3-yl)(piperidin-1-yl)methanone] | ≤ 100 nM | > 1.5
7 | O=C(c1cnn2c(NCCc3ccc(Cl)cc3)cccc12)N1CCCCC1 [Example 242, [7-[2-(4-chlorophenyl)ethylamino]pyrazolo[1,5-a]pyridin-3-yl]-(1-piperidyl)methanone] | ≤ 100 nM | < 1.5
8 | O=C(c1ncc(-c2cccc3c(C(=O)N4CCCCC4)cnn23)cc1Cl)N1CCC1 [Example 286, [7-[6-(azetidine-1-carbonyl)-5-chloro-3-pyridyl]pyrazolo[1,5-a]pyridin-3-yl]-(1-piperidyl)methanone] | ≤ 100 nM | > 1.5
9 | CC(C)NC(=O)c1ccc(-c2cccc3c(C(=O)N4CCCCC4)cnn23)cc1 [Example 60, N-isopropyl-4-(3-(piperidine-1-carbonyl)pyrazolo[1,5-a]pyridin-7-yl)benzamide] | ≤ 100 nM | > 1.5
10 | CNC(=O)c1ccc(-c2cccc3c(C(=O)N4CCCCC4)cnn23)cn1 [Example 75, N-methyl-5-(3-(piperidine-1-carbonyl)pyrazolo[1,5-a]pyridin-7-yl)picolinamide] | ≤ 100 nM | > 1.5
11 | O=C(c1cnn2c(-c3cccc(F)n3)cccc12)N1CCCCC1 [Example 271, (7-(6-fluoropyridin-2-yl)pyrazolo[1,5-a]pyridin-3-yl)(piperidin-1-yl)methanone] | ≤ 100 nM | > 1.5
12 | O=C(Nc1cccnc1)c1cccc(-c2cccc3c(C(=O)N4CCCCC4)cnn23)c1 [Example 37, 3-(3-(piperidine-1-carbonyl)pyrazolo[1,5-a]pyridin-7-yl)-N-(pyridin-3-yl)benzamide] | ≤ 100 nM | > 1.5
13 | O=C(c1ncc(-c2cccc3c(C(=O)N4CCCCC4)cnn23)cn1)N1CCC1 [Example 277, [7-[2-(azetidine-1-carbonyl)pyrimidin-5-yl]pyrazolo[1,5-a]pyridin-3-yl]-(1-piperidyl)methanone] | ≤ 100 nM | > 1.5
14 | CC(C)(C)OC(=O)N1CC=C(c2cccc3c(C(=O)N4CCCCC4)cnn23)CC1 [Example 120, tert-butyl 4-(3-(piperidine-1-carbonyl)pyrazolo[1,5-a]pyridin-7-yl)-3,6-dihydropyridine-1(2H)-carboxylate] | ≤ 100 nM | > 1.5
15 | O=C(c1cnn2c(-c3ccc(N4C5CCC4CC5)nc3)cccc12)N1CCCCC1 [Example 217] | ≤ 100 nM | > 1.5
16 | O=C(c1cnn2c(-c3ccc(N4CCCCC4)nc3)cccc12)N1CCCCC1 [Example 110, piperidin-1-yl(7-(6-(piperidin-1-yl)pyridin-3-yl)pyrazolo[1,5-a]pyridin-3-yl)methanone] | ≤ 100 nM | < 1.5

Row | Compound | IC50 (human 15-PGDH) | fold induction at 1 µM (A549 cells)
17 | O=C(Nc1ccncc1)c1cncc(-c2cccc3c(C(=O)N4CCCCC4)cnn23)c1 [Example 54, 5-(3-(piperidine-1-carbonyl)pyrazolo[1,5-a]pyridin-7-yl)-N-(pyridin-4-yl)nicotinamide] | ≤ 100 nM | > 1.5
18 | CN(C)CC(=O)Nc1cncc(-c2cccc3c(C(=O)N4CCCCC4)cnn23)c1 [Example 196, 2-(dimethylamino)-N-(5-(3-(piperidine-1-carbonyl)pyrazolo[1,5-a]pyridin-7-yl)pyridin-3-yl)acetamide] | ≤ 100 nM | > 1.5
19 | O=C(c1cnn2c(-c3ccc4c(=O)[nH]ccc4c3)cccc12)N1CCCCC1 [Example 138, 6-(3-(piperidine-1-carbonyl)pyrazolo[1,5-a]pyridin-7-yl)isoquinolin-1(2H)-one] | ≤ 100 nM | > 1.5
20 | O=C(Cc1ccc(C(F)(F)F)nc1)Nc1cncc(-c2cccc3c(C(=O)N4CCCCC4)cnn23)c1 [Example 388, N-(5-(3-(piperidine-1-carbonyl)pyrazolo[1,5-a]pyridin-7-yl)pyridin-3-yl)-2-(6-(trifluoromethyl)pyridin-3-yl)acetamide] | ≤ 100 nM | > 1.5
21 | O=C(c1cnn2c(-c3ccc(-c4nnn[nH]4)cc3)cccc12)N1CCCCC1 [Example 114, (7-(4-(1H-tetrazol-5-yl)phenyl)pyrazolo[1,5-a]pyridin-3-yl)(piperidin-1-yl)methanone] | ≤ 100 nM | > 1.5
22 | O=C(c1cnn2c(-c3ccc(-c4nnco4)cc3)cccc12)N1CCCCC1 [Example 350, [7-[4-(1,3,4-oxadiazol-2-yl)phenyl]pyrazolo[1,5-a]pyridin-3-yl]-(1-piperidyl)methanone] | ≤ 100 nM | > 1.5
23 | CN(C)c1cc(-c2cccc3c(C(=O)N4CCCCC4)cnn23)ccc1C#N [Example 23, 2-(dimethylamino)-4-(3-(piperidine-1-carbonyl)pyrazolo[1,5-a]pyridin-7-yl)benzonitrile] | ≤ 100 nM | > 1.5
24 | O=C(Cc1cccnc1)Nc1cncc(-c2cccc3c(C(=O)N4CCCCC4)cnn23)c1 [Example 327, N-(5-(3-(piperidine-1-carbonyl)pyrazolo[1,5-a]pyridin-7-yl)pyridin-3-yl)-2-(pyridin-3-yl)acetamide] | ≤ 100 nM | > 1.5
25 | O=C(NCc1cncs1)c1cncc(-c2cccc3c(C(=O)N4CCCCC4)cnn23)c1 [Example 57, 5-(3-(piperidine-1-carbonyl)pyrazolo[1,5-a]pyridin-7-yl)-N-(thiazol-5-ylmethyl)nicotinamide] | ≤ 100 nM | > 1.5
26 | Cc1noc(C)c1-c1ccc(-c2cccc3c(C(=O)N4CCCCC4)cnn23)cc1 [Example 324, [7-[4-(3,5-dimethylisoxazol-4-yl)phenyl]pyrazolo[1,5-a]pyridin-3-yl]-(1-piperidyl)methanone] | ≤ 100 nM | > 1.5
27 | O=C(c1cnn2c(-c3cnc(-c4nnc(C(F)(F)F)o4)c(F)c3)cccc12)N1CCCCC1 [Example 394, [7-[5-fluoro-6-[5-(trifluoromethyl)-1,3,4-oxadiazol-2-yl]-3-pyridyl]pyrazolo[1,5-a]pyridin-3-yl]-(1-piperidyl)methanone] | ≤ 100 nM | > 1.5
28 | COc1ccc(-c2cccc3c(C(=O)N4CCCCC4)cnn23)cc1C(F)(F)F [Example 20, (7-(4-methoxy-3-(trifluoromethyl)phenyl)pyrazolo[1,5-a]pyridin-3-yl)(piperidin-1-yl)methanone] | ≤ 100 nM | > 1.5
29 | O=C(c1cnn2c(-c3cnc(-c4noc(=O)[nH]4)nc3)cccc12)N1CCCCC1 [Example 321, 3-[5-[3-(piperidine-1-carbonyl)pyrazolo[1,5-a]pyridin-7-yl]pyrimidin-2-yl]-4H-1,2,4-oxadiazol-5-one] | ≤ 100 nM | > 1.5
30 | O=C(c1ccc(-c2cccc3c(C(=O)N4CCCCC4)cnn23)cc1)N1CCC1 [Example 61, azetidin-1-yl(4-(3-(piperidine-1-carbonyl)pyrazolo[1,5-a]pyridin-7-yl)phenyl)methanone] | ≤ 100 nM | > 1.5
31 | O=C(c1cnn2c(-c3ccc(O)c(Cl)c3)cccc12)N1CCCCC1 [Example 21] | ≤ 100 nM | > 1.5
32 | O=C(c1cnn2c(-c3ccc(F)c(-c4noc(=O)[nH]4)c3)cccc12)N1CCCCC1 [Example 275, 3-[2-fluoro-5-[3-(piperidine-1-carbonyl)pyrazolo[1,5-a]pyridin-7-yl]phenyl]-4H-1,2,4-oxadiazol-5-one] | ≤ 100 nM | > 1.5
